US20220395468A1, “Transdermal Drug Delivery Systems for Administration of a Therapeutically Effective Amount of Lenalidomide and Other Immunomodulatory Agents” (Starton Therapeutics, Inc., priority 2021, published 2022)
Read-outs that look alike come from different tables or passages of the source. Blank lines part the entries; values can stand above or below the compound they belong to.

Key:
[1] = FIG. 10
Experimental: In vitro permeability of lenalidomide through human cadaver skin was conducted using in vitro franz diffusion cells to identify potential permeation enhancers for lenalidomide. Donor compartment was loaded with Lenalidomide solution or gel.
Lenalidomide H1 solutions were prepared in following different solvents Lactic acid, Dimethyl sulfoxide, NMP, Levulinic acid, Super refined PEG 400, Tween 40, Polysorbate 80.
Lenalidomide gels were prepared using a following solvent system composition (Table 7). Gels were made with 10 different permeation enhancers.

[2] = Experimental: Next, the solubility of lenalidomide H1 was determined in silicone polymer-based pressure sensitive adhesives and acrylic polymer-based pressure sensitive adhesives. Pressure sensitive adhesive polymers are the major component of the pressure sensitive adhesives matrix patches and typically constitute 50%-85% of the formulation.
Remark: listed apart in the source
[3] = people with high-risk SMM, oral; cited from earlier work
[4] = cited from earlier work
[5] = cited from earlier work; remark: listed apart in the source

rate of lenalidomide permeation ([1]; solution in Lactic acid): highest rate
rate of lenalidomide permeation ([1]; solution in Levulinic acid): negligible permeation
rate of lenalidomide permeation ([1]; solutions in NMP and DMSO): followed by NMP and DMSO
rate of lenalidomide permeation ([1]; solutions in SR PEG 400, TWEEN 40, Polysorbate 80): insignificant to no permeation
Lenalidomide H1 solubility ([2]; in BIO-PSA 7-4202 (silicone PSA)): Less than 0.5% W/W
Lenalidomide H1 solubility ([2]; in Duro-Tak 87-2052 (acrylic PSA)): Less than 0.5% W/W
Lenalidomide H1 solubility ([2]; in Duro-Tak 87-2074 (acrylic PSA)): Less than 0.5% W/W
Lenalidomide H1 solubility ([2]; in Duro-Tak 87-2194 (acrylic PSA)): Less than 0.5% W/W
Lenalidomide H1 solubility ([2]; in Duro-Tak 87-2516 (acrylic PSA)): approximately 0.5% W/W
Lenalidomide H1 solubility ([2]; in Duro-Tak 87-2852 (acrylic PSA)): Less than 0.5% W/W
Lenalidomide H1 solubility ([2]; in Duro-Tak 87-4098 (acrylic PSA)): Less than 0.5% W/W
Lenalidomide H1 solubility ([2]; in Duro-Tak 87-9301 (acrylic PSA)): Less than 0.5% W/W
Solubility (Aquasolve HPMC-AS MF (0.25 G) + Solvent system Acetone:Methanol (1:1)): 1.2 % W/W
Solubility (Eudragit + Solvent system Acetone:Methanol (1:1)): 0.9 % W/W
Solubility (Kollidon 30 (0.5 G) + Solvent system Acetone:Methanol (1:1)): 2.2 % W/W
Solubility (Kollidon 90 F (0.5 G) + Solvent system Acetone:Methanol (1:1)): 2.0 % W/W
Solubility (Kollidon VA 64 (0.5 G) + Solvent system Acetone:Methanol (1:1)): 2.1 % W/W
Solubility (Kollisolv P124 Geismer (0.27 G) + Solvent system Acetone:Methanol (1:1)): 0.9 % W/W
Solubility (in Acetone): 0.2 % W/W
Solubility (in Acetonitrile): 0.3 % W/W
Solubility (in Dimethyl sulfoxide): 20.7 % W/W
Solubility (in Ethanol 190 Proof): 0.2 % W/W
Solubility (in Ethyl acetate): <0.1 % W/W
Solubility (in Heptane): <0.1 % W/W
Solubility (in Isooctadecanoic acid): <0.1 % W/W
Solubility (in Lactic acid): 9.3 % W/W
Solubility (in Lauryl Lactate): 0.1 % W/W
Solubility (in Levulinic acid): 5.5 % W/W
Solubility (in Methanol): 0.3 % W/W
Solubility (in Methanol:Acetone (1:1)): 0.9 % W/W
Solubility (in Methyl Laurate): <0.1 % W/W
Solubility (in NMP): 29.3 % W/W
Solubility (in Propylene Glycol): 0.4 % W/W
Solubility (in Propylene Glycol monolaurate): <0.1 % W/W
Solubility (in Super refined PEG 400): 1.6 % W/W
Solubility (in Toluene): <0.1 % W/W
Compound: Nc1cccc2c1CN(C1CCC(=O)NC1=O)C2=O (stereo not drawn) [Lenalidomide H1]

Solubility (in DMSO, room temperature): 10-20%
Solubility (in NMP, room temperature): about 30 % w/w
Solubility (in esters): less than 0.5%
Solubility (in glycols): less than 2%
Solubility (in two organic acids, Lactic acid and levulinic acid): more than 5%
Compound: Nc1cccc2c1CN(C1CCC(=O)NC1=O)C2=O (stereo not drawn) [Lenalidomide, 3-(4-amino-1-3-dihydro-1-oxo-2H-isoindol-2yl)-2,6-piperidinedione]
discontinued due to drug-related side effects [3]: 40%
three-year progression-free survival [3]: 91%
solubility of the LLD in solution [4]: 400 to 500 µg/mL
log P [5]: −0.4
